{"source": "patent US6175001A", "about": "“Functionalized pyrimidine nucleosides and nucleotides and DNA's incorporating same” (The Scripps Research Institute, priority 1998, dated 2001)", "key": {"[1]": {"test_system": "thermostable DNA polymerase", "details": "Latham et al., Nucleic Acids Res. 1994; cited from earlier work"}, "[2]": {"test_system": "thermostable DNA polymerases (Taq, Vent, Pfu, rTh)", "assay": "PCR assays with modified dUTP in place of dTTP, panel of thermostable DNA polymerases", "type": "biochemical", "details": "for substrate for thermostable DNA polymerases in PCR: typical PCR conditions, analog in place of dTTP, all polymerases tested (Taq, Vent, Pfu, rTh), 519 base pair product; for incorporation of modified base in PCR under varied conditions: variation of Mg+2 (15 to 30 mM) and analog concentrations", "text": "(§1) Commercially available thermostable DNA polymerases from […] organisms were studied; Taq from Thermus aquaticus, Vent from Thermococcus litoralis, Pfu from Pyrococcus furiosus, and rTh from Thermus thermophilus. […] Homogeneous incorporation of these derivatives in PCR is not possible due to chain termination, see 11c for discussion of derivatives in PCR: a) M. Shimkus, J. Levy, T. Herman, Proc. Natl. Acad. Sci. U.S.A. 1985, 82, 2593-7; b) B. L. Iverson, P. B. Dervan, J Am. Chem. Soc. 1987, 109, 1241-3. and ref. 10; c) H. Yu, J. Chao, D. Patek, R. Mujumdar, A. S. Waggoner, Nucleic Acids Res. 1994, 22, 3226-32. Successful PCR with this template requires incorporation of 246 modified bases including a single stretch of 8 contiguous thymidines.\n(§2) Compound 3 was derivatized with three different N-hydroxysuccinimide esters to prepare Compounds 4a-c (Scheme 2 FIG. 3). […] To test this structure-activity relationship, 4e-4g maintaining the a,b-unsaturated linker arm common to 4a, were also prepared (Scheme 2, FIG. 3). […] Compound 4g, with a free amino group, was used as a template for the synthesis of Compounds 4h and 4i."}, "rTh polymerase": {"target": "T1, rTh polymerase (Thermus thermophilus, UniProt P52028)", "T1 construct": "purchased", "assay": "PCR assay with modified dUTP in place of dTTP, rTh polymerase", "type": "biochemical", "details": "analog in place of dTTP, 519 base pair product", "text": "as §1, §2"}, "[3]": {"target": "T2, Superscript II reverse transcriptase (Moloney murine leukemia virus, UniProt P03355, D1183G/D1242N/E1221Q)", "T2 construct": "Superscript II reverse transcriptase; purchased Gibco/BRL", "assay": "Reverse transcriptase template-directed extension assay", "type": "biochemical", "details": "0.4 mM analog; 0.2 mM dATP, dCTP, dGTP; 37 C", "method": "Reverse transcriptases may also be utilized in conjunction with PCR in in vitro selection schemes of DNA enzymes. […] The specificity of this reverse transcriptase is broader and not predictive of the structural requirements of the thermostable polymerases.\nReverse transcriptase assays: Template-directed extension was performed by addition of 10 pmol template DNA 5'-GCTAAAAAAGCTGCTAAAAAGCTGCTAAAAGCTGCTAAAGCTAAGCTAGCTCCCTTTAGTGAGGGTTAATTGC-3' (SEQ ID NO. 1) to 10 pmol primer DNA 5'-GCAATTAACCCTCACTAAAGGG-3' (SEQ ID NO 2) followed by Superscript II reverse transcriptase (Gibco, 200 units.(1^-1). The reaction (25 (I) contained 0.2 mM of dATP, dCTP, dGTP and 0.4 mM analog. Trace quantities of ((-^32 P(-dATP was included to allow the extension efficiency to be monitored. All components except reverse transcriptase were combined, incubated at 90° C. and cooled to 37° C. to anneal the primer. The enzyme (600 units) was added and the reaction mixture was incubated at 37 (C. The DNA was precipitated in ethanol and then dissolved in gel-loading buffer containing urea and heated for 3 min at 90° C. After separation on a 10% denaturing acrylarnide gel, the samples were further analyzed with a Phosphorimager."}}, "data": [{"smiles": "CCCC#Cc1cn([C@H]2C[C@H](O)[C@@H](COP(=O)(O)OP(=O)(O)OP(=O)(O)O)O2)c(=O)[nH]c1=O", "note": "[5-(1-pentynyl)-2' deoxyuridine triphosphate]", "values": [{"measurement": "substrate for a thermostable DNA polymerase", "setting": "[1]", "value": "good substrate"}]}, {"smiles": "NCC=Cc1cn([C@H]2C[C@H](O)[C@@H](COP(=O)(O)OP(=O)(O)OP(=O)(O)O)O2)c(=O)[nH]c1=O", "note": "[Compound 3, C-5(3-aminopropenyl)-2'-deoxvuridinetriphosphate]", "values": [{"measurement": "criteria for in vitro selection: substrate for thermostable polymerases and product serves as template for multiple cycles of PCR amplification", "setting": "[2]", "value": "criteria were met"}, {"measurement": "substrate for thermostable DNA polymerases in PCR", "setting": "[2]", "value": "acted as a substrate"}, {"measurement": "incorporation / substrate in PCR with rTh polymerase (only polymerase of the panel that accepts it)", "setting": "rTh polymerase", "value": "incorporation into the 519 base pair product only with rTh polymerase"}]}, {"smiles": "O=C(/C=C/c1c[nH]cn1)NCC=Cc1cn([C@H]2C[C@H](O)[C@@H](COP(=O)(O)OP(=O)(O)OP(=O)(O)O)O2)c(=O)[nH]c1=O", "note": "[Compound 4a]", "values": [{"measurement": "criteria for in vitro selection: substrate for thermostable polymerases and product serves as template for multiple cycles of PCR amplification", "setting": "[2]", "value": "criteria were met"}, {"measurement": "substrate for thermostable DNA polymerases in PCR", "setting": "[2]", "value": "excellent substrate for all the polymerases tested"}]}, {"smiles": "O=C(O)c1ccc(C(=O)NC/C=C/c2cn([C@H]3C[C@H](O)[C@@H](COP(=O)(O)OP(=O)(O)OP(=O)(O)O)O3)c(=O)[nH]c2=O)cc1", "note": "[Compound 4b]", "values": [{"measurement": "incorporation of modified base in PCR under varied conditions", "setting": "[2]", "value": "failed to define conditions that allowed for incorporation"}]}, {"smiles": "O=C(O)c1ccccc1-c1ccccc1C(=O)NCC=Cc1cn([C@H]2C[C@H](O)[C@@H](COP(=O)(O)OP(=O)(O)OP(=O)(O)O)O2)c(=O)[nH]c1=O", "note": "[Compound 4c]", "values": [{"measurement": "incorporation of modified base in PCR under varied conditions", "setting": "[2]", "value": "failed to define conditions that allowed for incorporation"}, {"measurement": "substrate of Superscript II reverse transcriptase in template directed synthesis", "setting": "[3]", "value": "all but 4c and 4h were substrates"}]}, {"smiles": "O=C(CCc1c[nH]cn1)NC/C=C/c1cn([C@H]2C[C@H](O)[C@@H](COP(=O)(O)OP(=O)(O)OP(=O)(O)O)O2)c(=O)[nH]c1=O", "note": "[Compound 4d]", "values": [{"measurement": "substrate for thermostable DNA polymerases in PCR", "setting": "[2]", "value": "No conditions could be defined with any of the polymerases that allowed for PCR"}]}, {"smiles": "NCc1cccc(/C=C/C(=O)NC/C=C/c2cn([C@H]3C[C@H](O)[C@@H](COP(=O)(O)OP(=O)(O)OP(=O)(O)O)O3)c(=O)[nH]c2=O)c1", "note": "[Compound 4g]", "values": [{"measurement": "substrate for thermostable DNA polymerases in PCR", "setting": "[2]", "value": "robust substrate for PCR as compared to 3"}]}, {"smiles": "O=C(O)CCCC(=O)NCc1cccc(/C=C/C(=O)NC/C=C/c2cn([C@H]3C[C@H](O)[C@@H](COP(=O)(O)OP(=O)(O)OP(=O)(O)O)O3)c(=O)[nH]c2=O)c1", "note": "[Compound 4h]", "values": [{"measurement": "substrate for thermostable DNA polymerases in PCR", "setting": "[2]", "value": "good substrate for all thermostable polymerases tested"}, {"measurement": "substrate of Superscript II reverse transcriptase in template directed synthesis", "setting": "[3]", "value": "all but 4c and 4h were substrates"}]}, {"smiles": "CC(=O)N[C@@H](Cc1c[nH]cn1)C(=O)NCc1cccc(/C=C/C(=O)NC/C=C/c2cn([C@H]3C[C@H](O)[C@@H](COP(=O)(O)OP(=O)(O)OP(=O)(O)O)O3)c(=O)[nH]c2=O)c1", "note": "[Compound 4i]", "values": [{"measurement": "incorporation / substrate in PCR with rTh polymerase (only polymerase of the panel that accepts it)", "setting": "rTh polymerase", "value": "substrate only for rTh polymerase"}]}]}
